According to patent US9969752B2, “Inhibitors of HIF prolyl hydroxylase” (MERCK SHARP & DOHME CORP., priority 2014, dated 2018):
pIC50: −log10 of the molar value.

molecular target: T1, Human HIF-PHD2 (Homo sapiens, UniProt Q9GZT9); assay: Inhibition of the hydroxylation of a HIF peptide by PHD2 (time resolved fluorescence, 384-well); assay type: biochemical; settings: FLAG-tagged full length PHD2; 0.2 μM 2-oxoglutarate, 0.5 μM HIF-1α peptide; 45 minutes at room temperature; read-out: Human HIF-PHD2 IC50
T1 construct: FLAG-tagged full length PHD2 expressed in and purified from baculovirus-infected Sf9 cells; FLAG; made in house; host or cells: baculovirus-infected Sf9 cells
T1 sequence (Q9GZT9 whole entry): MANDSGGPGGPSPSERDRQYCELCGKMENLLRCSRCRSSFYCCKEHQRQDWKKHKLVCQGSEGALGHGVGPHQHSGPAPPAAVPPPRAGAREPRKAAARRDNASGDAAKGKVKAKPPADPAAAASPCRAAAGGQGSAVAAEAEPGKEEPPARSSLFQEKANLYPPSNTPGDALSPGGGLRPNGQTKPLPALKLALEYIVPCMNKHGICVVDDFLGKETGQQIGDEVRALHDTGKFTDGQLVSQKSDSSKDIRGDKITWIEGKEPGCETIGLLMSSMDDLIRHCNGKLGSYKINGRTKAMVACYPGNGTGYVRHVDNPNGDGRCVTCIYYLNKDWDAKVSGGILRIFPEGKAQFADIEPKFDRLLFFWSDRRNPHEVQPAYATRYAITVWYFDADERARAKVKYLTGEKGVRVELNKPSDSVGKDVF

| SMILES | pIC50 |
| --- | --- |
| O=C(O)CNC(=O)c1c(O)c2cccc3c2n(c1=O)C(c1ccc(C(F)(F)F)cc1)CS3 (centres unmarked) [Example 100, 2-(7-Hydroxy-5-oxo-3-(4-(trifluoromethyl)phenyl)-3,5-dihydro-2H-[1,4]thiazino[2,3,4-ij]quinoline-6-carboxamido)acetic acid] | 7.49 |
| O=C(O)CNC(=O)c1c(O)c2cccc3c2n(c1=O)C(c1ccc(Br)cc1)CO3 (racemic) [Example 133, 2-(3-(4-Bromophenyl)-7-hydroxy-5-oxo-3,5-dihydro-2H-[1,4]oxazino[2,3,4-ij]quinoline-6-carboxamido)acetic acid] | 7.77 |
| O=C(O)CNC(=O)c1c(O)c2cccc3c2n(c1=O)CC(c1cncs1)N3 (centres unmarked) [Example 110, 2-(7-Hydroxy-5-oxo-2-(thiazol-5-yl)-1,2,3,5-tetrahydropyrido[1,2,3-de]quinoxaline-6-carboxamido)acetic acid] | 7.92 |
| O=C(O)CNC(=O)c1c(O)c2cccc3c2n(c1=O)CC(c1ccc(C(F)(F)F)cc1)N3 (centres unmarked) [Example 108, 2-(7-Hydroxy-5-oxo-2-(4-(trifluoromethyl)phenyl)-1,2,3,5-tetrahydropyrido[1,2,3-de]quinoxaline-6-carboxamido)acetic acid] | 8.19 |
| O=C(O)CNC(=O)c1c(O)c2cccc3c2n(c1=O)CC(c1ccc(C(F)(F)F)nc1)C3 (centres unmarked) [Example 83, 2-(1-Hydroxy-3-oxo-6-(6-(trifluoromethyl)pyridin-3-yl)-3,5,6,7-tetrahydropyrido[3,2,1-ij]quinoline-2-carboxamido)acetic acid] | 8.30 |
| O=C(O)CNC(=O)c1c(O)c2cccc3c2n(c1=O)C(Cc1ccc(C(F)(F)F)cc1)CO3 (centres unmarked) [Example 3, 2-(7-Hydroxy-5-oxo-3-(4-(trifluoromethyl)benzyl)-3,5-dihydro-2H-[1,4]oxazino[2,3,4-ij]quinoline-6-carboxamido)acetic acid] | 7.68 |
| O=C(O)CNC(=O)c1c(O)c2cccc3c2n(c1=O)C(c1cncs1)CS3 (centres unmarked) [Example 105, 2-(7-Hydroxy-5-oxo-3-(thiazol-5-yl)-3,5-dihydro-2H-[1,4]thiazino[2,3,4-ij]quinoline-6-carboxamido)acetic acid] | 8.29 |
| O=C(O)CNC(=O)c1c(O)c2ccnc3c2n(c1=O)CC(c1ccc(C(F)(F)F)cc1)O3 (centres unmarked) [Example 51, 2-(7-Hydroxy-5-oxo-2-(4-(trifluoromethyl)phenyl)-3,5-dihydro-2H-[1,4]oxazino[2,3,4-ij][1,7]naphthyridine-6-carboxamido)acetic acid] | 7.89 |
| O=C(O)CNC(=O)c1c(O)c2c(F)ccc3c2n(c1=O)CC(c1ccc(C(F)(F)F)cc1)N3 (centres unmarked) [Example 119, 2-(8-Fluoro-7-hydroxy-5-oxo-2-(4-(trifluoromethyl)phenyl)-1,2,3,5-tetrahydropyrido[1,2,3-de]quinoxaline-6-carboxamido)acetic acid] | 8.00 |
| N#Cc1ccc(C2Cn3c(=O)c(C(=O)NCC(=O)O)c(O)c4c(OC(F)(F)F)ccc(c43)O2)cc1 (single isomer, unassigned) [Example 88, 2-(2-(4-Cyanophenyl)-7-hydroxy-5-oxo-8-(trifluoromethoxy)-3,5-dihydro-2H-[1,4]oxazino[2,3,4-ij]quinoline-6-carboxamido)acetic acid] | 8.07 |
| Cc1cc2c3c(c1)c(O)c(C(=O)NCC(=O)O)c(=O)n3C(Cc1ccc(C(F)(F)F)cc1)CO2 (centres unmarked) [Example 7, 2-(7-hydroxy-9-methyl-5-oxo-3-(4-(trifluoromethyl)benzyl)-3,5-dihydro-2H-[1,4]oxazino[2,3,4-ij]quinoline-6-carboxamido)acetic acid] | 7.43 |

Now from value to compound:

| pIC50 | SMILES |
| --- | --- |
| 8.82 | N#Cc1ccc2c(O)c(C(=O)NCC(=O)O)c(=O)n3c2c1OCC3 [Example 37, 2-(10-cyano-7-hydroxy-5-oxo-3,5-dihydro-2H-[1,4]oxazino[2,3,4-ij]quinoline-6-carboxamido)acetic acid] |
| 9.05 | CS(=O)(=O)c1cc2c3c(c1)c(O)c(C(=O)NCC(=O)O)c(=O)n3CC(c1ccc(C(F)(F)F)cc1)O2 (single isomer, unassigned) [Example 17, 2-(7-Hydroxy-9-(methylsulfonyl)-5-oxo-2-(4-(trifluoromethyl)phenyl)-3,5-dihydro-2H-[1,4]oxazino[2,3,4-ij]quinoline-6-carboxamido)acetic acid] |
| 8.74 | O=C(O)CNC(=O)c1c(O)c2c(Cl)ccc3c2n(c1=O)CC(c1ccc(C(F)(F)F)cc1)O3 (single isomer, unassigned) [Example 70, 2-(8-Chloro-7-hydroxy-5-oxo-2-(4-(trifluoromethyl)phenyl)-3,5-dihydro-2H-[1,4]oxazino[2,3,4-ij]quinoline-6-carboxamido)acetic acid] |
| 8.47 | O=C(O)CNC(=O)c1c(O)c2cccc3c2n(c1=O)CC(c1ccc(C(F)(F)F)nc1)S3 (centres unmarked) [Example 103, 2-(7-Hydroxy-5-oxo-2-(6-(trifluoromethyl)pyridin-3-yl)-3,5-dihydro-2H-[1,4]thiazino[2,3,4-ij]quinoline-6-carboxamido)acetic acid] |
| 8.35 | O=C(O)CNC(=O)c1c(O)c2cccc3c2n(c1=O)CC(c1ccc(C(F)(F)F)cc1)N3 (centres unmarked) [Example 64, 2-(7-Hydroxy-5-oxo-2-(4-(trifluoromethyl)phenyl)-1,2,3,5-tetrahydropyrido[1,2,3-de]quinoxaline-6-carboxamido)acetic acid] |
| 8.85 | CS(=O)(=O)c1cc2c3c(c1)c(O)c(C(=O)NCC(=O)O)c(=O)n3CCC2 [Example 49, 2-(1-Hydroxy-9-(methylsulfonyl)-3-oxo-3,5,6,7-tetrahydropyrido[3,2,1-ij]quinoline-2-carboxamido)acetic acid] |
| 8.44 | O=C(O)CNC(=O)c1c(O)c2ccc(-c3cccnc3)c3c2n(c1=O)CCO3 [Example 153, N-[(7-Hydroxy-5-oxo-10-pyridin-3-yl-2,3-dihydro-5H-[1,4]oxazino[2,3,4-ij]quinolin-6-yl)carbonyl]glycine] |
| 8.64 | O=C(O)CNC(=O)c1c(O)c2ccc(Br)c3c2n(c1=O)CC(c1ccc(C(F)(F)F)cc1)O3 (centres unmarked) [Example 22, 2-(10-Bromo-7-hydroxy-5-oxo-2-(4-(trifluoromethyl)phenyl)-3,5-dihydro-2H-[1,4]oxazino[2,3,4-ij]quinoline-6-carboxamido)acetic acid] |
| 9.10 | O=C(O)CNC(=O)c1c(O)c2cccc3c2n(c1=O)CC(c1ccc(C(F)(F)F)cc1)S3(=O)=O (centres unmarked) [Example 60, 2-(7-Hydroxy-1,1-dioxido-5-oxo-2-(4-(trifluoromethyl)phenyl)-3,5-dihydro-2H-[1,4]thiazino[2,3,4-ij]quinoline-6-carboxamido)acetic acid] |
| 8.89 | CS(=O)(=O)c1cc2c3c(c1)c(O)c(C(=O)NCC(=O)O)c(=O)n3CC(c1ccc(C(F)(F)F)cc1)O2 (single isomer, unassigned) [Example 18, 2-(7-Hydroxy-9-(methylsulfonyl)-5-oxo-2-(4-(trifluoromethyl)phenyl)-3,5-dihydro-2H-[1,4]oxazino[2,3,4-ij]quinoline-6-carboxamido)acetic acid] |
| 8.59 | O=C(O)CNC(=O)c1c(O)c2ccc(Cl)c3c2n(c1=O)CC(c1ccc(C(F)(F)F)cc1)O3 (single isomer, unassigned) [Example 72, 2-(10-Chloro-7-hydroxy-5-oxo-2-(4-(trifluoromethyl)phenyl)-3,5-dihydro-2H-[1,4]oxazino[2,3,4-ij]quinoline-6-carboxamido)acetic acid] |
| 9.30 | N#Cc1ccc(C2Cn3c(=O)c(C(=O)NCC(=O)O)c(O)c4cc(C#N)cc(c43)O2)cc1 (centres unmarked) [Example 52, 2-(9-Cyano-2-(4-cyanophenyl)-7-hydroxy-5-oxo-3,5-dihydro-2H-[1,4]oxazino[2,3,4-ij]quinoline-6-carboxamido)acetic acid] |

same assay, conditions: FLAG-tagged full length PHD2; 0.2 μM 2-oxoglutarate, 0.5 μM HIF-1α peptide; 45 minutes at room temperature; read-out: MS m/z (M + 1)+ and human HIF-PHD2 IC50

| pIC50 | SMILES |
| --- | --- |
| 7.89 | Nc1ccc(-c2ccc(C3COc4cccc5c(O)c(C(=O)NCC(=O)O)c(=O)n3c45)cc2)cn1 (centres unmarked) [Example 149, N-({3-[4-(6-aminopyridin-3-yl)phenyl]-7-hydroxy-5-oxo-2,3-dihydro-5H-[1,4]oxazino[2,3,4-ij]quinolin-6-yl}carbonyl)glycine] |
| 8.00 | N#Cc1ccc(C2COc3cccc4c(O)c(C(=O)NCC(=O)O)c(=O)n2c34)cc1 (centres unmarked) [Example 181, ammonium 2-(3-(4-cyanophenyl)-7-hydroxy-5-oxo-3,5-dihydro-2H-[1,4]oxazino[2,3,4-ij]quinoline-6-carboxamido)acetate] |
| 8.27 | O=C(O)CNC(=O)c1c(O)c2ccc(Br)c3c2n(c1=O)C(c1cncs1)CO3 (centres unmarked) [Example 177, 2-(10-bromo-7-hydroxy-5-oxo-3-(thiazol-5-yl)-3,5-dihydro-2H-[1,4]oxazino[2,3,4-ij]quinoline-6-carboxamido)acetic acid] |
| 8.48 | Cc1noc(C)c1-c1ccc2c(O)c(C(=O)NCC(=O)O)c(=O)n3c2c1OCC3 [Example 155, N-{[10-(3,5-dimethylisoxazol-4-yl)-7-hydroxy-5-oxo-2,3-dihydro-5H-[1,4]oxazino[2,3,4-ij]quinolin-6-yl]carbonyl}glycine] |
| 7.96 | O=C(O)CNC(=O)c1c(O)c2ccc(-c3ccn[nH]3)c3c2n(c1=O)C(c1ccc(C(F)(F)F)cc1)CO3 (centres unmarked) [Example 140, 2-(7-hydroxy-5-oxo-10-(1H-pyrazol-5-yl)-3-(4-(trifluoromethyl)phenyl)-3,5-dihydro-2H-[1,4]oxazino[2,3,4-ij]quinoline-6-carboxamido)acetic acid] |
| 8.17 | COc1ccc(-c2ccc(C3COc4cccc5c(O)c(C(=O)NCC(=O)O)c(=O)n3c45)cc2)cc1 (centres unmarked) [Example 145, N-{[7-hydroxy-3-(4′-methoxybiphenyl-4-yl)-5-oxo-2,3-dihydro-5H-[1,4]oxazino[2,3,4-ij]quinolin-6-yl]carbonyl}glycine] |
